Assay results published in PubChem BioAssay (NCI).
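Grown in 96-well plates, cells were treated for 48 hours with each compound at five concentrations. Insufficient inhibition: endpoint recorded as highest concentration tested. At the GI50, growth is halved. The concentration for full growth arrest is given as TGI.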

Legend:
Experiment in all cases: NCI-60 cell line screen, 48 h
A498 renal = system: A498 renal
OVCAR-5 ovarian = system: OVCAR-5 ovarian
K-562 leukemia = system: K-562 leukemia
SNB-75 CNS = system: SNB-75 CNS
ACHN renal = system: ACHN renal
A549 NSCLC = system: A549 NSCLC
RPMI-8226 leukemia = system: RPMI-8226 leukemia
UO-31 renal = system: UO-31 renal
NCI-H226 lung = system: NCI-H226 lung
CAKI-1 renal = system: CAKI-1 renal

Row | SMILES | GI50 (A498 renal) [µM] | TGI (A498 renal) [µM] | GI50 (OVCAR-5 ovarian) [µM] | TGI (OVCAR-5 ovarian) [µM] | GI50 (K-562 leukemia) [µM] | TGI (K-562 leukemia) [µM] | GI50 (SNB-75 CNS) [µM] | TGI (SNB-75 CNS) [µM] | GI50 (ACHN renal) [µM] | TGI (ACHN renal) [µM] | GI50 (A549 NSCLC) [µM] | TGI (A549 NSCLC) [µM] | GI50 (RPMI-8226 leukemia) [µM] | TGI (RPMI-8226 leukemia) [µM] | GI50 (UO-31 renal) [µM] | TGI (UO-31 renal) [µM] | GI50 (NCI-H226 lung) [µM] | TGI (NCI-H226 lung) [µM] | GI50 (CAKI-1 renal) [µM] | TGI (CAKI-1 renal) [µM]
1 | COc1cccc2c(=O)c3c(sc12)c(NCCCNCCO)nc1ccccc13 | 1.56 | 3.3 | 1.58 | 3.16 | 1.42 | 3.68 | 0.964 | 7.44 | 1.35 | 2.67 | 1.42 | 3.11 | 1.73 | 3.71 | 1.03 | 2.28 | 1.6 | 3.46 | 1.18 | 2.5
2 | CC(C)[O-].CC(C)[O-].CN(CCN(C)Cc1cc(F)cc(F)c1[O-])Cc1cc(F)cc(F)c1[O-].[Ti+4] | 1.13 | 2.76 | 1.51 | 8.78 | 0.835 | 5.49 | 0.517 | 2.52 | 1 | 8.34 | 0.892 | 7.95 | 0.882 | 4.44 | 0.977 | 5.46 | 2.14 | 10.5 | 0.874 | 6.45
3 | COc1ccc(-c2c(C3=NCCCN3)nnn2-c2ccc([N+](=O)[O-])cc2)cc1 | – | > 100 | – | > 100 | – | > 100 | – | > 100 | – | > 100 | – | > 100 | – | > 100 | – | > 100 | – | > 100 | – | > 100
4 | O=C(c1cccs1)C1NO[N+]([O-])=C1c1cccs1 (configuration not stated) | 1.95 | 6.3 | 7.62 | 20.4 | 3.02 | > 100 | 1.54 | 3.89 | 1.85 | 3.56 | 9.89 | 34.4 | 2.36 | 6.2 | 0.27 | 1.47 | 9.9 | > 35.2 | 1.61 | 3.41
5 | CCN(CC)c1ccc(/C=C/C2=[N+](C)c3ccccc3C2(C)C)c(C)c1 | 0.11 | 4.02 | 0.128 | 16.8 | 0.0377 | 12.2 | 0.0736 | 0.876 | 0.0773 | 3.97 | 0.0964 | 14.1 | < 0.0164 | 0.466 | 0.088 | 2.53 | 0.0444 | 1.69 | 0.926 | 12
6 | N#Cc1c(-c2ccco2)cc(-c2ccccc2)[nH]c1=O | – | > 100 | – | > 100 | – | > 100 | – | > 100 | – | > 100 | – | > 100 | – | > 100 | – | > 100 | – | > 100 | – | –
7 | C=C1C(=O)C23C(O)C1CC[C@H]2C12CCCC(C)(COC(C)=O)[C@H]1[C@H](O)[C@]3(O)OC2 (some centres not stated) | – | 6.77 | – | 5.18 | – | 1.07 | – | 4.33 | – | 3.32 | – | 9.95 | – | 1.76 | – | 3.35 | – | 5.7 | – | 3.44
8 | CCNCCNc1cc(-c2ccc(C#N)cc2)c(C#N)c2nc3ccccc3n12 | 3.73 | 11.9 | 4.66 | 18.4 | 3.13 | 18.2 | 1.66 | 4.24 | 2.34 | 5.73 | 3.06 | 6.39 | 4.78 | 19.5 | 1.62 | 3.1 | 2.59 | 11.9 | 3.5 | 13.5
9 | COc1ccc(Nc2nccc(N3CCN(c4c5ccc(Cl)cc5nc5ccc(OC)cc45)CC3)n2)cc1 | 2.4 | 31 | > 100 | > 100 | 3.06 | > 100 | 5.61 | 46.7 | 6.86 | > 100 | 7.51 | > 100 | 3.73 | 28.1 | 8.26 | > 100 | 29.7 | > 100 | 8.93 | > 100
10 | O=C(O)c1ccccc1C(=O)c1ccc2c(c1)Cc1ccccc1-2 | – | > 100 | – | > 100 | – | > 100 | – | > 100 | – | > 100 | – | > 100 | – | > 100 | – | > 100 | – | > 100 | – | > 100
11 | CSc1ccc(N(C)c2nc(C)nc3c2CCC3)cc1 | < 0.01 | < 0.01 | 1.23 | > 100 | < 0.01 | > 100 | < 0.01 | 42.1 | < 0.01 | > 100 | < 0.01 | > 100 | < 0.01 | 25 | – | – | < 0.01 | > 100 | < 0.01 | > 100
12 | Cn1c(=O)nc2n(-c3ccc(Cl)c(C(F)(F)F)c3)c3ccccc3nc-2c1=O | – | > 100 | – | > 100 | – | > 100 | – | > 100 | – | > 100 | – | > 86.3 | – | > 100 | – | > 100 | – | > 100 | – | > 100
13 | Cc1ccc(NC(=O)/C(Cc2cc(=O)oc3cc(O)ccc23)=N\NC(=O)C[N+](C)(C)C)cc1C | – | > 100 | – | > 100 | – | > 100 | – | > 100 | – | > 100 | – | > 100 | – | > 100 | – | > 100 | – | > 100 | – | > 100
14 | COc1ccc(C2Oc3c(c(O)cc4c3[C@H](c3ccc(O)cc3O)[C@H](O)C(c3ccc(O)c(O)c3)O4)C[C@@H]2O)cc1O (some centres not stated) | – | > 100 | – | > 100 | – | > 100 | – | > 100 | – | > 100 | – | > 100 | – | > 100 | – | > 100 | – | > 100 | – | > 100
15 | C[C@]12C/C(=C/O)C(=O)C(O)=C1CC[C@@H]1C2CC[C@@]2(C)C1CC[C@@H]2O (some centres not stated) | – | 65.1 | – | 46.1 | – | 82.2 | – | 34.9 | – | 72.2 | – | > 100 | – | 64.8 | – | 31.3 | – | 36.8 | – | 76.6
